# Data reported in ChEMBL document CHEMBL5727281, “N2-phenyl-pyrido[3,4-D]pyrimidine-2, 8-diamine derivatives and their use as Mps1 inhibitors” (2019).
# pIC50: −log10 of the molar value.
# Target: T1, Dual specificity protein kinase TTK (Homo sapiens, UniProt P33981)
# T1 sequence (P33981 whole entry): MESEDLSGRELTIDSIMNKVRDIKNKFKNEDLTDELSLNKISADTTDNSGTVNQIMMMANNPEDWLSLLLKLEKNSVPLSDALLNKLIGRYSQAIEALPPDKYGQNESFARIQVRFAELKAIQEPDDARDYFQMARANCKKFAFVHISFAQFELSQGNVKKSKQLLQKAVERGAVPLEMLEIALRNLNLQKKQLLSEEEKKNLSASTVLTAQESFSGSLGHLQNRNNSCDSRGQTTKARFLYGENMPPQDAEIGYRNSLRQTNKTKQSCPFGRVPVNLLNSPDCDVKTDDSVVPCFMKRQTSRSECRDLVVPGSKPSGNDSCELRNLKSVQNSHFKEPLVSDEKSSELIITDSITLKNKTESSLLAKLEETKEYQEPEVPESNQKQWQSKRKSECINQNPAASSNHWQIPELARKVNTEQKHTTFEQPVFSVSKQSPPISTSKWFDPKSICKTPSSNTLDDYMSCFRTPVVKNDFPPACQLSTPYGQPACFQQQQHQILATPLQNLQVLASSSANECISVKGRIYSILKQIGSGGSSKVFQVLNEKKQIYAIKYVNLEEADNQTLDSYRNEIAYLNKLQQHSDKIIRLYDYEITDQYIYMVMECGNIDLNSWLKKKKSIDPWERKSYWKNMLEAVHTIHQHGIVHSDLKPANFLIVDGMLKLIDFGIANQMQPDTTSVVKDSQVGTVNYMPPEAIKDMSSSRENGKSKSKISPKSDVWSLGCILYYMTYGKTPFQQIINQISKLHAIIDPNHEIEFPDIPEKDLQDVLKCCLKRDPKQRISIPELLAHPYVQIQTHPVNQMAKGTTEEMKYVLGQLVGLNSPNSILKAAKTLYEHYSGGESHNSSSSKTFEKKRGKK
# Assay: The reaction was carried out for 60 min at room temperature and stopped by the addition of buffer (10 μl) containing 20 mM EDTA, 0.05% (v/v) Brij-35, in 0.1M HEPES-buffered saline (Free acid, Sigma, UK). […] The % inhibition of the compounds is calculated relative to the means of selected control wells. […] The % inhibitions at each concentration are then fitted to a 4 parameter logistic fit.
row,pIC50,Structure (SMILES)
1,8.70,COc1cc(-c2cnc(C)n2C)ccc1Nc1ncc2cc(C)nc(NCC3(C)CCOC3)c2n1 (stereo not drawn)
2,8.52,CCOc1cc(-c2nncn2C)ccc1Nc1ncc2cc(C)nc(N3CCC(C)(C#N)C3)c2n1 (stereo not drawn)
3,8.52,CCOc1cc(-c2nncn2C)ccc1Nc1ncc2cc(C)nc(N3CCC(C#N)C3)c2n1 (stereo not drawn)
4,8.70,CCOc1cc(-c2nncn2C)ccc1Nc1ncc2cc(C)nc(N3CC4(CCCC4)C3)c2n1
5,8.22,CCOc1cc(-c2nncn2C)ccc1Nc1ncc2cc(C)nc(N3CC(F)(F)C3)c2n1
6,8.70,COc1cc(-c2cnc(C)n2C)ccc1Nc1ncc2cc(C)nc(N3CC(C)(C#N)C3)c2n1
7,8.52,CCOc1cc(-c2nncn2C)ccc1Nc1ncc2cc(C)nc(N3CCC(C)(OC)CC3)c2n1
8,8.40,CCOc1cc(-c2nncn2C)ccc1Nc1ncc2cc(C)nc(N3CC(O)(CC)C3)c2n1
